Measured values: patent US6613317B1, “Volatile attractants for diabrotica species” (priority 1988, dated 2003)
Where “and” joins values, the source holds several entries; their conditions need not be identical. Identical values can stand only once. Marks after values point to notes of the source that are not given here.

Key:
NCR = assay: Limit of response rating of squash blossom volatiles on sticky traps (Example 5); assay type: in vivo, Diabrotica barberi; conditions: 24 hour; four replicate traps; 0.01 mg to 200 mg
Method: (§1) Over 40 individual volatile chemicals have been isolated from Cucurbita maxima blossoms and circa 25 of these have been unequivocally identified (Andersen, J. F., J. Agric. Food Chem., 35:60-62 (1987): Andersen, J. F. and Metcalf, R. L., J. Chem. Ecol., 12:687-699 (1986)). The major odor components were evaluated as potential attractants for adult Diabrotica species using cylindrical sticky traps baited with dental cotton wicks (Metcalf, R. L., and Lampman, R. L., Paper submitted to J. Econ. Entomol., (1988)) containing from 0.01 mg to 200 mg of volatile compound.

SCR = assay: as above; assay type: in vivo, Diabrotica undecimpunctata howardi; conditions: 24 hour; four replicate traps; 0.01 mg to 200 mg
Method: as §1

WCR = assay: as above; assay type: in vivo, Diabrotica virgifera virgifera; conditions: 24 hour; four replicate traps; 0.01 mg to 200 mg
Method: as §1

D. barberi = assay: Sticky trap attraction in prairie habitat, Trelease Woods (Example 2); assay type: in vivo, Diabrotica barberi; conditions: 100 mg per trap, n = 4
Method: (§2) The candidate lures in all experiments were purchased commercially and exceeded 98% purity. The test chemicals were applied by capillary micropipettes to cotton dental wicks which were attached to the tops of 1.0 liter cylindrical paper cartons covered with TangleTrap™ (Tanglefoot Co., Grand Rapids, Mich.). The sticky trap techniques used were as described in Example 1. Cinnamyl alcohol and para-methoxycinnamaldehyde, which are solids, were dissolved in glass-distilled acetone prior to dosing the cotton wicks. […]. Control traps had untreated cotton wicks. Four replicates of treated and untreated traps were randomly positioned 10 meters apart on top of 1 m high posts along the border of a eight foot wide strip cut through the middle of a 4.05 ha relict prairie at Trelease Woods (ca. two miles northeast of Urbana, Ill.). The field consisted primarily of Andropogon gerardii Vitman (big bluestem) and a variety of composites. The tests were conducted in mid-August of two years and were timed to coincide with the presence of D. cristata and D. barberi adults in the flower heads of Canada thistle (Carduus arvensis Robson). In the second year, several new attractants of D. v. virgifera and D. barberi were tested in Trelease Woods and along the edge of a 0.8 ha field of hybrid corn located at the Pomology South Farms, Urbana, Ill. Attraction of Diabrotica species to the various lures was measured by the mean number of beetles caught after 24-h. On one date in late August of the first year, D. cristata and D. barberi were removed from the traps and sexed in the laboratory. The significance of treatments in all tests was determined by an analysis of variance and the individual means were separated by Duncan's multiple range test (Statistical Package for Social Science, Nie, et al., SPSS: statistical package for the social sciences, 2nd ed. McGraw-Hill, New York (1975). Data were logarithmically transformed for statistical analysis and the means and standard deviations are presented for the untransformed data.

D. cristata = assay: as above; assay type: in vivo, Diabrotica cristata; conditions: 100 mg per trap, n = 4
Method: as §2

D. v. virgifera = assay: as above; assay type: in vivo, Diabrotica virgifera virgifera; conditions: 100 mg per trap, n = 4
Method: as §2

D. u. howardi = assay: as above; assay type: in vivo, Diabrotica undecimpunctata howardi; conditions: 100 mg per trap, n = 4
Method: as §2

Row | Structure (SMILES) | Attractant Rating NCR (by limit of response) (NCR) | Attractant Rating SCR (by limit of response) (SCR) | Attractant Rating WCR (by limit of response) (WCR) | further results
1 | CC/C=C\CCO [cis-3-hexenol] | 0 (200) | 0 (200) | +1 (30-100) | 
2 | CCCCCC=O [1-hexanal] | 0 (200) | 0 (200) | 0 (200) | 
3 | COc1ccc(C=O)cc1 [p-methoxybenzaldehyde] | 0 (200) | 0 (200) | 0 (200) | 
4 | OCc1ccccc1 [benzyl alcohol] | 0 (200) | 0 (200) | 0 (200) | 
5 | COc1ccc(OC)cc1 [1,4-dimethoxybenzene] | 0 (200) | 0 (200) | 0 (200) | 
6 | COc1ccc(OC)c(OC)c1 [1,2,4-trimethoxybenzene] | 0 (200) | +1 (30-100) | +1 (30-100) | 
7 | CCC/C=C/C=O [trans-2-hexenal] | 0 (200) | 0 (200) | 0 (200) | 
8 | CC=Cc1ccc(O)c(OC)c1 [Isoeugenol] |  |  |  | Mean number of D. barberi per sticky trap per day (±standard deviation) (D. barberi; August 18, first year): 31.8 ± 26.7^b per sticky trap per day; Mean number of D. barberi per sticky trap per day (±standard deviation) (D. barberi; August 27, first year): 8.5 ± 3.4^b per sticky trap per day; Mean number of D. cristata per sticky trap per day (±standard deviation) (D. cristata; August 18, first year): 10.5 ± 12.6^b per sticky trap per day; Mean number of D. cristata per sticky trap per day (±standard deviation) (D. cristata; August 27, first year): 2.5 ± 1.7^b per sticky trap per day; Mean number of D. v. virgifera per sticky trap per day (±standard deviation) (D. v. virgifera; August 18, first year): 0.0^a per sticky trap per day; Mean number of D. v. virgifera per sticky trap per day (±standard deviation) (D. v. virgifera; August 20, first year): 0 per sticky trap per day; Mean number of D. v. virgifera per sticky trap per day (±standard deviation) (D. v. virgifera; August 27, first year): 0 per sticky trap per day; Mean number of D. u. howardi per sticky trap per day (±standard deviation) (D. u. howardi; August 18, first year): 0.0^a per sticky trap per day; Mean number of D. u. howardi per sticky trap per day (±standard deviation) (D. u. howardi; August 20, first year): 0.5 ± 1.0^a per sticky trap per day and 1.0 ± 0.8^a per sticky trap per day; Mean number of D. u. howardi per sticky trap per day (±standard deviation) (D. u. howardi; August 27, first year): 0.5 ± 1.0^a per sticky trap per day
